Results as given in patent US20220380357A1, “TETRAHYDROISOQUINOLINE COMPOUNDS” (ALLINKY BIOPHARMA, priority 2019, published 2022).

Assays:
[1] = test system: H358. non-small cell lung cancer line bearing KRas^G12C oncogenic mutation; test: Antiproliferative MTS assay, H358 cells; assay type: cell-based; conditions: Homo sapiens, NCI-H358, 72 h, compounds 1-23, 47-52 and Reference Example 1 median of experiments, 24-46 estimations and/or preliminary results, read-out: IC50 values: cell proliferation inhibition, H358
Method: Cell line #2: H358. non-small cell lung cancer line bearing KRas^G12C oncogenic mutation
(§1) Cell lines were cultured in DMEM or RPMI-1640 supplemented with FBS 10%. In order to assess the antiproliferative effect of compounds, cells were seeded at a density of 1.8×10^3, 6.2×10^3, 7.8×10^3, 21×10^3 and 2×10^3 cells/cm^2, respectively, in tissue culture microplates and were incubated in humidified atmosphere at 5% CO2. 24 h later, compounds dissolved in DMSO 100% were added for different final concentrations ranging between 0.1 and 50 μM for a final DMSO concentration of 0.5% and the plates were incubated for another 72 h. After incubation, proliferation was quantified using CellTiter 96® Aqueous Non-Radioactive Cell Proliferation Assay-MTS (Promega #G5421) following manufacturer instructions. Amount of 490 nm absorbance is directly proportional to the number of living cells. Absorbance was recorded with a BMG Fluostar Optima Microplate Reader and normalized to control with vehicle.

[2] = test system: PANC-1. epithelioid carcinoma of the pancreas cell line bearing KRas^G12D oncogenic mutation; test: Antiproliferative MTS assay, PANC-1 cells; assay type: cell-based; conditions: Homo sapiens, PANC-1, 72 h, compounds 1-23 and 47-52 median of experiments, 24-46 estimations and/or preliminary results, read-out: IC50 values: cell proliferation inhibition, Panc-1
Method: Cell line #3: PANC-1. epithelioid carcinoma of the pancreas cell line bearing KRas^G12D oncogenic mutation
as §1

[3] = test system: RPMI. myeloma cell line bearing KRas^G12A oncogenic mutation; test: Antiproliferative MTS assay, RPMI cells; assay type: cell-based; conditions: 72 h, compounds 1-23 and 47-52 median of experiments, 24-46 estimations and/or preliminary results, read-out: IC50 values: cell proliferation inhibition, RPMI
Method: Cell line #4: RPMI. myeloma cell line bearing KRas^G12A oncogenic mutation
as §1

[4] = test system: A549. Lung carcinoma cell line bearing KRas^G12S oncogenic mutation; test: Antiproliferative MTS assay, A549 cells; assay type: cell-based; conditions: Homo sapiens, A549, 72 h, compounds 1-23 and 47-52 median of experiments, 24-46 estimations and/or preliminary results, read-out: IC50 values: cell proliferation inhibition, A549
Method: Cell line #1: A549. Lung carcinoma cell line bearing KRas^G12S oncogenic mutation
as §1

NIH-H358 Cell Line = test: 3D CellTiter-Glo cell viability assay; assay type: cell-based; conditions: 168 h, NIH-H358 cells in 0.65% methylcellulose, 7 days' compound treatment
Method: Example 5: Efficacy Testing in 3D Viability Assay for NIH-H358 Cell Line
The protocol to perform 3D CellTiter-Glo™ cell viability assay is as follows:
Day—1: Cell plating • Adjust cell concentrations to 1×10^5 cells/ml with respective medium. (Cell concentration is adjusted according to data base or density optimization assay). Mix 3.5 mL of cell suspension 6.5 mL of 1% methylcellulose. Mix and wait for bubbles to disperse before pipetting. This step yields 10 ml of cell suspension in 0.65% methylcellulose solution. Add 99.5 μL cell suspensions to 96-well plates according to plate map with final cell density. • Two duplicate plates will be set up. One is for day 0 reading (T0) and the other will be cultured in incubator for reading at the end point. • Incubate the plates overnight in humidified incubator at 37° C. with 5% CO2.
Day 0: T0 plate reading and compound treatment • Take T0 plate, add 0.5 μL culture medium to each well for T0 reading. • Add 100 μl CellTiter-Glo® Reagent to each well. • Mix contents for 2 minutes on an orbital shaker to facilitate cell lysis. • Allow the plate to incubate at room temperature for 10 minutes to stabilize luminescent signal. • Record luminescence using EnVision Multi Label Reader. • Dilute the test articles at the concentration indicated at Test Articles Dilution. Add 0.5 μL of each 200× compound working solutions according to plate inoculation map.
Day 7: Plate reading of 7 days' compound treatment • Add 100 μL CellTiter-Glo® Reagent to each well. • Mix contents for 2 minutes on an orbital shaker to facilitate cell lysis. • Allow the plate to incubate at room temperature for 10 minutes to stabilize luminescent signal. • Record luminescence using EnVision Multi Label Reader.

[5] = test system: subcutaneous NCI-H358 Human Lung Cancer Model; test: Efficacy in xenograft studies (tumor growth inhibition); assay type: in vivo, NCr nude mice; conditions: for Oral anti-tumor activity: 20 mg/kg BID peroral, subcutaneous NCI-H358 xenograft; for TGI (tumor growth inhibition): NCI-H358 xenograft, NCr nude mice
From the text: (§2) Evaluation of the efficacy of compounds 6, 11 and 13 in the treatment of subcutaneous NCI-H358 Human Lung Cancer Model in NCr nude mice.
(§3) The treatment with compound 6 started when the tumors size reached 170 mm^3 (study 1). This value was 190 mm^3 in the case of compounds 11 and 13 (study 2).
Studies endpoints: The major endpoints of the study included the following:
Tumor growth inhibition (TGI): TGI(%) is an indication of antitumor effectiveness, and it is expressed as: TGI (%)=100×(1−T/C). T and C were the mean tumor volume of the treated and control groups, respectively, on a given day.

[6] = Body weight and tolerability in xenograft studies; assay type: in vivo; conditions: 20 mg/kg BID peroral, mice bearing NCI-H358 xenograft
From the text: as §2, §3
The results of the body weight changes in the tumor bearing mice are shown in FIG. 1 (p.o. is peroral; i.p. is intraperitoneal). The body weight of the animals at the end of the treatment with the three compounds was only slightly below the body weight of the respective vehicle control groups.

[7] = Study 2: 20 mg/kg peroral BID × 27 days

SMILES | IC50 [1] | IC50 [2] | IC50 [3] | IC50 [4] | IC50 (NIH-H358 Cell Line) | Oral anti-tumor activity [5] | TGI (tumor growth inhibition) ([5]; Study 1: 20 mg/kg peroral BID × 29 days) | Tolerability / safety of dose [6] | TGI (tumor growth inhibition) [5, 7]
CCNC(=O)N1CCc2cc(OC)c(OCCc3ccc(OC)c(N)c3)cc2C1c1ccc(C)cc1C (stereo not shown) [Compound 6, 7-(3-amino-4-methoxyphenethoxy)-1-(2,4-dimethylphenyl)-N-ethyl-6-methoxy-3,4-dihydroisoquinoline-2(1H)-carboxamide] | 200 nM | 200 nM | 100 nM | 600 nM | 125 nM | significant oral anti-tumor activities | 27.09% | tolerate 20 mg/kg BID and safe | –
CCNC(=O)N1CCc2cc(OC)c(OCCc3ccc(OC)c(N)c3)cc2C1c1ccc(Cl)cc1C (stereo not shown) [Compound 13] | 300 nM | 300 nM | 100 nM | 1000 nM | 147 nM | significant oral anti-tumor activities | – | tolerate 20 mg/kg BID and safe | 26.99%
CCNC(=O)N1CCc2cc(OC)c(OCCc3ccc(OC)c(O)c3)cc2C1c1ccc(C)cc1C (stereo not shown) [Compound 5, 1-(2,4-dimethylphenyl)-N-ethyl-7-(3-hydroxy-4-methoxyphenethoxy)-6-methoxy-3,4-dihydroisoquinoline-2(1H)-carboxamide] | 100 nM | 200 nM | 100 nM | 700 nM | 533 nM | – | – | – | –
COc1ccc(CCOc2cc3c(cc2OC)CCN(C(=O)NCc2cocn2)C3c2ccc(C)cc2C)cc1N (stereo not shown) [Compound 4] | 200 nM | 400 nM | 300 nM | 900 nM | 556 nM | – | – | – | –
CCNC(=O)N1CCc2cc(OC)c(OCCc3ccc(OC)c(N)c3)cc2C1c1ccc(OC)cc1C (stereo not shown) [Compound 11] | 200 nM | 200 nM | 100 nM | 800 nM | 413 nM | significant oral anti-tumor activities | – | tolerate 20 mg/kg BID and safe | 48.22%
COc1cc2c(cc1OCCc1cc(O)cc(Cl)c1)C(c1ccc(C)cc1C)N(C(=O)NCc1cocn1)CC2 (stereo not shown) [Compound 3] | > 2000 nM | > 2000 nM | > 2000 nM | > 2000 nM | > 1000 nM | – | – | – | –
COc1ccc(CCOc2cc3c(cc2OC)CCN(C(=O)NCc2cocn2)C3c2ccc(C)cc2C)cc1O (stereo not shown) [Compound 2] | 400 nM | 300 nM | 200 nM | 1000 nM | 299 nM | – | – | – | –
COc1cc(O)cc(CCOc2cc3c(cc2OC)CCN(C(=O)NCc2cocn2)C3c2ccc(C)cc2C)c1 (stereo not shown) [Compound 1] | 1500 nM | 2000 nM | 1500 nM | 2000 nM | > 1000 nM | – | – | – | –

The next lines start with results.

IC50 [1] | IC50 [2] | IC50 [3] | IC50 [4] | IC50 (NIH-H358 Cell Line) | SMILES | Oral anti-tumor activity [5] | TGI (tumor growth inhibition) ([5]; Study 1: 20 mg/kg peroral BID × 29 days) | Tolerability / safety of dose [6] | TGI (tumor growth inhibition) [5, 7]
1000 nM | 1000 nM | 200 nM | > 2000 nM | > 1000 nM | CCNC(=O)N1CCc2cc(OC)c(OCCc3ccc(OC)c(N)c3)cc2C1c1ccc(N(C)C)cc1C (stereo not shown) [Compound 52] | – | – | – | –
900 nM | 800 nM | 600 nM | 600 nM | 531 nM | CCNC(=O)N1CCc2cc(OC)c(OCCc3ccc(F)c(N)c3)cc2C1c1ccc(C)cc1C (stereo not shown) [Compound 7] | – | – | – | –
200 nM | 200 nM | 200 nM | 900 nM | > 3000 nM | CCNC(=O)N1CCc2cc(OC)c(OCCc3ccc(OC)c([N+](=O)[O-])c3)cc2C1c1ccc(C)cc1C (stereo not shown) [Compound 8] | – | – | – | –
300 nM | 200 nM | 100 nM | 900 nM | 360 nM | CCNC(=O)N1CCc2cc(OC)c(OCCc3ccc(OC)c(N)c3)cc2C1c1ccc(C(F)(F)F)cc1C (stereo not shown) [Compound 10] | – | – | – | –
600 nM | > 1000 nM | 400 nM | > 2000 nM | 963 nM | COc1ccc(CCOc2cc3c(cc2OC)CCN(C(=O)N[C@H](C)C(F)(F)F)C3c2ccc(C)cc2C)cc1N (stereo partly shown) [Compound 47] | – | – | – | –
150 nM | 70 nM | > 1000 nM | 200 nM | 178 nM | CCNC(=O)N1CCc2cc(OC)c(OCCc3ccc(OC)c(N)c3)cc2C1c1ccc(Br)cc1C (stereo not shown) [Compound 51] | – | – | – | –
500 nM | 200 nM | 150 nM | > 2000 nM | 767 nM | COc1ccc(C2c3cc(OCCc4ccc(OC)c(N)c4)c(OC)cc3CCN2C(=O)N[C@@H](C)C(F)(F)F)c(C)c1 (stereo partly shown) [Compound 50] | – | – | – | –
100 nM | 500 nM | 40 nM | > 1000 nM | 371 nM | COc1ccc(CCOc2cc3c(cc2OC)CCN(C(=O)N[C@@H](C)C(F)(F)F)C3c2ccc(C)cc2C)cc1N (stereo partly shown) [Compound 48] | – | – | – | –
400 nM | 300 nM | 200 nM | 1000 nM | 645 nM | CCNC(=O)N1CCc2cc(OC)c(OCCc3ccc(N)c(OC)c3)cc2C1c1ccc(C)cc1C (stereo not shown) [Compound 9, 7-(4-amino-3-methoxyphenethoxy)-1-(2,4-dimethylphenyl)-N-ethyl-6-methoxy-3,4-dihydroisoquinoline-2(1H)-carboxamide] | – | – | – | –
